Measurements reported in patent publication US10066272B2, “Human homeobox gene ventx and macrophage terminal differentiation and activation, compositions and methods thereof” (priority 2011, dated 2018).

Key:
[1] = system: cytokine mRNA expression in macrophages; test: Effects of VentX knockdown on cytokine mRNA expression in macrophages (real-time PCR); assay type: cell-based, human; set-up: unit not given here; settings: macrophages transfected with siRNA; classical activation by LPS plus IFN-γ
Experimental: Macrophages were generated through incubation of freshly isolated monocytes with 100 ng/mL M-CSF for 4 days. These macrophages were then transfected with siGFP or siVentX, respectively, and further cultured in RPMI 1640 medium for additional 3 days. Thereafter, cells were exposed to 1 μg/mL LPS plus 20 ng/mL γ-IFN for 6 hours. (A) Surface staining of CD40, CD80, CD86 and HLA-DR and intracellular staining of TNF-α and IL1-β were analyzed by flow cytometry. (B) Secreted TNF-α, IL1-β and IL12p70 from culture supernatants were determined with ELISA kits. (C) Reactive oxygen species (ROS) from siGFP or siVentX transfected macrophages were analyzed with fluorescence microscope (left) and flow cytometry (middle). […] (D) Nitrate level from siGFP and siVentX transfected macrophages. Data represent mean+SD of three different experiments. (E) Phagocytosis of siGFP and siVentX transfected macrophage. Red histogram represents transfection with siGFP; green histogram represents transfection with siVentX. Left panel: cells were incubated on ice; right panel: cells were incubated at 37° C. (F) Effects of VentX knockdown on mixed lymphocyte reaction. Irradiated macrophages that had been transfected with siGFP or siVentX were utilized to stimulate allogenic naïve CD4 T cells proliferation. The proliferation rates were represented by counts per minute (CPM). […] Statistically significant difference (p<0.05) was observed when 4×10^2 or 2×10^3 cells were added.
(Martinez, et al. 2008 Front Biosci 13:453-461; Mosser, et al. 2008 Nat Rev Immunol 8:958-969.) To investigate whether VentX is required for classical activation of macrophages, a loss-of-function approach by knockdown of VentX was used.
Human primary monocytes were transfected using the Human Monocyte Nucleofector Kit (Lonza) according to the manufacturer's instructions. Briefly, 5×10^6monocytes were resuspended into 100 μl nucleofector solution with 0.5 nmol of either VentX siRNA (forward: 5′-[…]-3′ (SEQ ID NO:4); reverse: 5′-[…]-3′ (SEQ ID NO:5)) or non-effective GFP siRNA (forward: 5′-[…]-3′ (SEQ ID NO:6); 5′-reverse: […]-3′ (SEQ ID NO:7)) before electroporation with nucleofector II Device (Lonza). Cells were then immediately removed from the device and incubated overnight with 1 ml pre-warmed Human Monocyte Nucleofector Medium containing 2 mM glutamine and 10% FBS. Cells were then resuspended into complete RPMI medium and treated with appropriate cytokines to induce differentiation into macrophages. Similarly, macrophages derived from monocytes were transfected with Human Macrophage Nucleofector Kit (Lonza) following the manufacturer's instructions.
Total RNA was isolated by the TRIzol reagent, and an equal amount of RNA was used for first-strand cDNA synthesis with SuperScript III First-Strand Synthesis System (Invitrogen) according to the manufacturer's protocol. To amplify VentX cDNA with conventional PCR, AccuPrime™ Taq DNA polymerase system (Invitrogen) was used following the manufacturer's instructions. PCR products were separated on 2% agarose gels and stained with ethidium bromide. GAPDH was used as an internal control. Quantitative measurement of VentX and cytokines cDNA were performed with SYBR Green on a LightCycler® (480 Real-Time PCR System; Roche). The primers used are listed in the Sequence Listing (SEQ ID NOs: 24-109).

macrophages = test: Macrophage classical activation after siRNA transfection, surface markers by flow cytometry; assay type: cell-based, human; settings: transfected macrophages
Experimental: Macrophages were generated through incubation of freshly isolated monocytes with 100 ng/mL M-CSF for 4 days. These macrophages were then transfected with siGFP or siVentX, respectively, and further cultured in RPMI 1640 medium for additional 3 days. Thereafter, cells were exposed to 1 μg/mL LPS plus 20 ng/mL γ-IFN for 6 hours. (A) Surface staining of CD40, CD80, CD86 and HLA-DR and intracellular staining of TNF-α and IL1-β were analyzed by flow cytometry. (B) Secreted TNF-α, IL1-β and IL12p70 from culture supernatants were determined with ELISA kits. (C) Reactive oxygen species (ROS) from siGFP or siVentX transfected macrophages were analyzed with fluorescence microscope (left) and flow cytometry (middle). […] (D) Nitrate level from siGFP and siVentX transfected macrophages. Data represent mean+SD of three different experiments. (E) Phagocytosis of siGFP and siVentX transfected macrophage. Red histogram represents transfection with siGFP; green histogram represents transfection with siVentX. Left panel: cells were incubated on ice; right panel: cells were incubated at 37° C. (F) Effects of VentX knockdown on mixed lymphocyte reaction. […]
(A) Effects VentX over-expression on the expression of LPS and IFN-γ pathways components. […] No significant binding of VentX to the promoter regions of STAT1 and JunB was detected by the ChIP assay. […]

siVentX: VentX siRNA, forward 5′-UUCAGAAUCGCCGCAUGAAACACAAACGG-3′ (SEQ ID NO:4), reverse SEQ ID NO:5 (antisense CCGUUUGUGUUUCAUGCGGCGAUUCUGAA; listed as RNA, chemistry not given here)
IL1-β cytokine mRNA expression [1]: 21.93 ± 1.8 | IL6 cytokine mRNA expression [1]: 1.78 ± 0.14 | IL8 cytokine mRNA expression [1]: 172 ± 5.8 | IL12p35 cytokine mRNA expression [1]: 0.37 ± 0.14 | IL12p40 cytokine mRNA expression [1]: 0.61 ± 0.05 | M-SCSF cytokine mRNA expression [1]: 0.14 ± 0.01 | TNF-α cytokine mRNA expression [1]: 0.18 ± 0.01 | surface expression of CD40, CD80 and CD86 (macrophages; LPS plus IFN-γ, HLA-DR not affected (FIG. 8A)): significantly down-regulated | surface expression of CD119 (IFN-γ receptor 1), CD14 and TLR4 (macrophages; flow cytometry (FIG. 9C)): significantly diminished
